Reference: PubChem BioAssay (NCI)
Several values for one entry are separate records, joined by “and”; a condition that tells them apart may be missing. Equal entries are not always repeated.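 Cultured in 96-well plates, cells were exposed to test compound for 48 hours across five concentrations. The concentration for 50% growth inhibition is given as GI50. TGI is the concentration that stops growth completely.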

How the values were obtained:
Test in all cases: NCI anticancer screen, dose series, 48 h
786-0 renal = test system: 786-0 renal
RXF 393 renal = test system: RXF 393 renal
K-562 leukemia = test system: K-562 leukemia
SF-268 CNS = test system: SF-268 CNS
OVCAR-8 ovarian = test system: OVCAR-8 ovarian
MOLT-4 leukemia = test system: MOLT-4 leukemia
RPMI-8226 leukemia = test system: RPMI-8226 leukemia
HCT-15 colon = test system: HCT-15 colon
SF-539 CNS = test system: SF-539 CNS
LOX IMVI melanoma = test system: LOX IMVI melanoma

| SMILES | TGI (786-0 renal) | TGI (RXF 393 renal) | TGI (K-562 leukemia) | TGI (SF-268 CNS) | TGI (OVCAR-8 ovarian) | TGI (MOLT-4 leukemia) | TGI (RPMI-8226 leukemia) | TGI (HCT-15 colon) | TGI (SF-539 CNS) | TGI (LOX IMVI melanoma) | GI50 (786-0 renal) | GI50 (RXF 393 renal) | GI50 (K-562 leukemia) | GI50 (SF-268 CNS) | GI50 (OVCAR-8 ovarian) | GI50 (MOLT-4 leukemia) | GI50 (RPMI-8226 leukemia) | GI50 (HCT-15 colon) | GI50 (SF-539 CNS) | GI50 (LOX IMVI melanoma) |
| --- | --- | --- | --- | --- | --- | --- | --- | --- | --- | --- | --- | --- | --- | --- | --- | --- | --- | --- | --- | --- |
| CC(C)(C)OC[C@H](O)CC#N | > 100 µM | > 100 µM | > 100 µM | > 100 µM | > 100 µM | > 100 µM | > 100 µM | > 100 µM | > 100 µM | > 100 µM |  |  |  |  |  |  |  |  |  |  |
| O=C1CC(=O)OC(c2ccc([N+](=O)[O-])cc2)O1 | 3.36 µM | 3.23 µM | > 100 µM | 11 µM | 7.83 µM | 8.41 µM | 7.33 µM | 7.15 µM | 4.3 µM | 3.17 µM | 1.81 µM | 1.77 µM | 2.56 µM | 2.93 µM | 2.42 µM | 2.66 µM | 2.51 µM | 2.25 µM | 1.98 µM | 1.68 µM |
| O=C(OC[C@H]1O[C@@H](OC(=O)c2cc(O)c(O)c(O)c2)[C@H](OC(=O)c2cc(O)c(O)c(O)c2)[C@@H](OC(=O)c2cc(O)c(O)c(O)c2)[C@@H]1OC(=O)c1cc(O)c(O)c(O)c1)c1cc(O)c(O)c(O)c1 | 21.2 µM | 31.2 µM | > 100 µM | 33.7 µM | 24.9 µM | 86.5 µM | > 100 µM | > 100 µM | 16.3 µM | 4.41 µM |  |  |  |  |  |  |  |  |  |  |
| O=c1[nH]c(=O)n(C2OC3COC2C3O)cc1F (configuration not stated) | > 100 µM | > 100 µM | > 100 µM | > 100 µM | > 100 µM | > 100 µM | > 100 µM | > 100 µM |  | > 100 µM |  |  |  |  |  |  |  |  |  |  |
| C=C1C(=O)OC2/C=C(\C=O)CC/C=C(\C)C(O)C[C@@H]12 (some centres not stated) | 11.6 µM | 7.46 µM | > 36.1 µM | 14.7 µM | 12 µM | 21.4 µM | 8.69 µM | 14.9 µM | 27.2 µM | 18.5 µM |  |  |  |  |  |  |  |  |  |  |
| O=C([CH-]C(=O)C(F)(F)F)c1ccccc1.O=C([CH-]C(=O)C(F)(F)F)c1ccccc1.O=C([CH-]C(=O)C(F)(F)F)c1ccccc1.O=C([CH-]C(=O)C(F)(F)F)c1ccccc1.[Eu+3].c1ccncc1 | > 100 µM | 18.8 µM | 83 µM | 59.7 µM | > 100 µM | 36.2 µM | 35.3 µM | > 100 µM | 92.8 µM | 21 µM | 11.9 µM | 2.25 µM | 4.66 µM | 6.21 µM | 6.58 µM | 4.26 µM | 4.19 µM | 4.98 µM | 16 µM | 5.78 µM |
| O=C1NC2(CN3CCC2CC3)C(=O)N1CN(Cc1ccccc1)c1ccccc1 (configuration not stated) | > 100 µM | > 100 µM |  | > 100 µM | > 100 µM | > 100 µM | > 100 µM | > 100 µM | > 100 µM | > 100 µM |  |  |  |  |  |  |  |  |  |  |
| COC(=O)CCCCCN=Cc1c(O)c(O)c(C(C)C)c2cc(C)c(-c3c(C)cc4c(C(C)C)c(O)c(O)c(C=NCCCCCC(=O)OC)c4c3O)c(O)c12 | 14.7 µM | 4.65 µM | 6.03 µM | > 32.5 µM | > 32.5 µM | 16.5 µM | 15.1 µM | > 32.5 µM | > 32.5 µM | 4.82 µM | 1.77 µM | 0.851 µM | 1.07 µM | 1.51 µM | 1.27 µM | 1.05 µM | 0.946 µM | 1.55 µM | 1.6 µM | 1.28 µM |
| N.N.N.N.N.N.O=N[O-].[Br-].[Co+3].[Co+3].[OH3+].[OH3+] | > 100 µM | > 100 µM | > 100 µM | > 100 µM |  | > 100 µM | > 100 µM | > 100 µM | > 100 µM | > 100 µM | > 100 µM | > 100 µM | > 100 µM | > 100 µM |  | > 100 µM | > 100 µM | > 100 µM | > 100 µM | > 100 µM |
| O=C(O)CSc1ncccc1[N+](=O)[O-] | > 100 µM | > 100 µM | > 100 µM | > 100 µM | > 100 µM | > 100 µM |  | > 100 µM | > 100 µM | > 100 µM |  |  |  |  |  |  |  |  |  |  |
| CCN(CC)CCNc1n[n+]([O-])c2ccccc2[n+]1[O-] | 64.5 µM and 21 µM | 25.4 µM and 42.7 µM | 6.45 µM and 18.5 µM | 48.4 µM and > 100 µM | 31.1 µM and 27 µM | 5.12 µM and 5.07 µM | 18.9 µM and 20.5 µM | 26.1 µM and 25 µM | 25.7 µM and 42.9 µM | 28.3 µM |  |  |  |  |  |  |  |  |  |  |
| Cn1c(=O)c2c(ncn2CN2CCN(Cn3cnc4c3c(=O)n(C)c(=O)n4C)CC2)n(C)c1=O | > 100 µM | 44.1 µM | > 100 µM | > 100 µM | > 100 µM | 41.4 µM | 49.5 µM | > 100 µM | > 100 µM | 62.4 µM |  |  |  |  |  |  |  |  |  |  |
| COC(=O)c1c(-c2ccccc2)sc(-c2cccc3ccccc23)c1C(=O)OC | > 100 µM | > 100 µM | > 100 µM | > 100 µM | > 100 µM | > 100 µM | > 100 µM | > 100 µM | > 100 µM | > 100 µM |  |  |  |  |  |  |  |  |  |  |
| Cc1cc2c(=O)c3ccccc3[nH]c2c(C(=O)O)c1C | > 100 µM | > 100 µM | > 100 µM |  | > 100 µM | > 100 µM | > 100 µM | > 100 µM | > 100 µM |  |  |  |  |  |  |  |  |  |  |  |
| Cn1cc(CNCC2CCN(c3ncc(C(=O)NO)cn3)CC2)c2ccccc21 | 8.89 µM | 0.0385 µM | > 46.9 µM | 0.896 µM |  | > 52.7 µM | 40.5 µM | 15.8 µM | 13.4 µM | 0.0325 µM | 0.0414 µM | < 0.0107 µM | < 0.012 µM | 0.0259 µM | < 0.01 µM | < 0.0135 µM | < 0.01 µM | 0.144 µM | 0.021 µM | 0.0117 µM |
| CCOC(=O)COS(=O)(=O)C(F)(F)F | > 100 µM | > 100 µM | > 100 µM | > 100 µM | > 100 µM | > 100 µM | 50.5 µM | 35.1 µM | > 100 µM | 34 µM |  |  |  |  |  |  |  |  |  |  |
| C=C=C(C(=O)OC)S(=O)c1ccc([N+](=O)[O-])cc1[N+](=O)[O-] (configuration not stated) | > 66.6 µM | > 68 µM | 46.3 µM | > 74.6 µM | 55.1 µM | 50.3 µM | 55.1 µM | 45.3 µM | 55.3 µM | 46.4 µM |  |  |  |  |  |  |  |  |  |  |
